Measured values reported in patent publication USRE38551E1, “Anticonvulsant enantiomeric amino acid derivatives” (priority 1996, dated 2004).

Tests used:
Assay type in all cases: in vivo
[1] = system: maximal electroshock (MES) induced seizure; assay: maximal electroshock (MES) seizure test, mice (ip); conditions: for ED50: Mus musculus
Source text: (§1) Compounds were screened for anticonvulsant activity in both male albino Carthworth Farms No. 1 mice (ip route) and male albino Sprague Dawley rats [oral (po) route]. Activity was established using the electrical (maximal electroshock or MES) test. In the MES test, a drop of electrolyte solution with anesthetic (0.5% butacaine hemisulfate in 0.9% sodium chloride) was used in the eyes of the animals prior to positioning the corneal electrodes and delivery of current. […] Protection endpoints were defined as the abolition of the hind limb tonic extensor component of the induced seizure. In mice, effects of compounds on forced spontaneous motor activity were determined using the rotorod test. […] Normally under these conditions, mice maintain their balance almost indefinitely. In rats, motor impairment is assessed by observing for overt evidence of ataxia, abnormal gait and stance, and/or loss of placing response and muscle tone. In the mouse identification screening study all compounds were given at three dose levels (30, 100, 300 mg/kg) and two time periods (0.5 hours, 4 hours). Typically, in the MES seizures test one animal was tested at 30 mg/kg and 300 mg/kg, and three animals at 100 mg/kg. In the rotored toxicity test four animals were tested at 30 mg/kg, and 300 mg/kg, and eight animals at 100 mg/kg.
(§2) The quantitative determination of the median effective (ED50) and toxic doses (TD50) was conducted at previously calculated times of peak effect. Groups of at least eight animals were tested using different doses of test compound until at least two points wee determined between 100 and 0% protection and minimal motor impairment.

[2] = system: maximal electroshock (MES) induced seizure; assay: maximal electroshock (MES) seizure test, rats (po); conditions: for ED50: Rattus norvegicus
Source text: as §1, §2

hexobarbital sleep time = hexobarbital sleep time test; conditions: rats
Experimental: All rats subjected to the 5-day tolerance studies were maintained in their home cage for 24 hours and then subjected to the hexobarbital sleep time test (day 6). Each rat in each of the 3 groups was given 100 mg/kg of hexobarbital (i.p.) and the sleep time measured to the nearest minute. The mean sleep time and S.E. for each group were calculated.

Row | SMILES | ED50 ([1]; ip, read-out: MES, ED50) [mg/kg] | ED50 ([1]; ip, read-out: MOUSE anticonvulsant dose ED50 MES) [mg/kg] | PI protective index (TD50/MES ED50) ([1]; mice, ip) | Ratio to MES ([1]; mouse, i.p., Neurotox/MES (Table 6)) | ED50 ([2]; po, read-out: MES, ED50) [mg/kg] | ED50 ([2]; po, read-out: RAT anticonvulsant ED50 MES) [mg/kg] | Ratio to MES ([2]; rat, oral, Neurotox/MES (Table 6)) | PI protective index (TD50/MES ED50) ([2]; rat, po) | hexobarbital sleep time (hexobarbital sleep time; 5-day treated (48 mg/kg)) [min] | hexobarbital sleep time (hexobarbital sleep time; acute control (single dose 48 mg/kg)) [min] | MES, ED50 ([1]; mice, ip, at time of peak effect (hours in brackets)) | MOUSE anticonvulsant dose ED50 MES ([1]; mouse, i.p. (Table 6)) [mg/kg] | RAT anticonvulsant ED50 MES ([2]; rat, oral (Table 6)) [mg/kg] | MES, ED50 ([2]; rat, po, at time of peak effect)
1 | CC(=O)NC(C)C(=O)NCc1ccccc1 (racemic) [compound 1, N-Acetyl-D,L-alanine-N′-benzylamide] | 76.5 | 76.5 | 5.9 | 5.9 | 24.2 | 48.2 | 20.8 | >20.8 | 44.4 ± 1.9 | 34.3 ± 1.1 |  |  |  | 
2 | COC[C@@H](NC(C)=O)C(=O)NCc1ccccc1 [Ex. 1, 2, (R)-N-Benzyl-2-Acetamide-3-methoxypropionamide] |  |  |  |  |  |  |  |  |  |  | 4.5 [0.5] mg/kg | 4.46 | 3.90 | 3.9 [0.5] mg/kg
